Laboratory results from patent US20260000496A1, “MATERIALS AND METHODS FOR DRUG-INDUCED GINGIVAL OVERGROWTH” (Optimed Technology, Inc., priority 2019, published 2026).

Assays:
MyD88 = experiment: Western blot of MyD88 in oral keratinocytes; type: cell-based, human
Procedure: (§1) Cell Culture. Normal human oral keratinocytes (NOKSI) and fibroblast (HOF) cells were maintained in Dulbecco […] Eagle's medium (Sigma-Aldrich, St. Louis, MO, USA) supplemented with 10% fetal bovine serum (Atlas Bio-logicals, Fort Collins, CO, USA) and 100 units/mL penicillin and 100 μg/mL streptomycin (LifeTechnologies, Carlsbad, CA, USA). Cells were grown in incubator at 37° C. in a humidified chamber with 5% CO2.
Drugs treatment in cell culture. The cells were treated alone or with different combination of lipopolysaccharide, cyclosporine, phenytoin, and folic acid. All of them were purchased from Sigma-Aldrich (St. Louis, MO, USA). Each of them were used from 0 μg/ml to 40 μg/ml and the optimum concentration were found 10 μg/ml.
Western blot analysis. Cells were seeded in 60 mm plates with a density of 5×10^5 cells per plate and washed briefly with Dulbecco's phosphate-buffered saline (Gibco, Waltham, MA, USA). Whole cell lysates were prepared using RIPA lysis buffer containing protease inhibitor cocktail (Sigma-Aldrich). Total protein concentration was determined using the BCA reagent (Pierce, Waltham, MA, USA). 20 μg of total protein were resolved on sodium dodecyl sulfate-polyacrylamide gel electrophoresis and transferred to polyvinylidenedifluoride membrane and immunoblotted. The blots were incubated for 1 h in 1% bovine serum albumin (BSA) (Sigma-Aldrich) to block the non-specific bindings followed by over-night incubation in primary antibodies (MyD88 and pP65 from Cell Signaling Technology, and human LITAF ThermoFisher Sigma) at 4° C. on shaker. Next day, blots were washed for three times (10 min each) in Tris-buffered saline containing 1% Tween20 (TBST) followed by incubation with secondary antibody (Goat anti-rabbit IgG HRP) with 1:10,000 dilution for 1 h. Following washes, bands were visualized using gel documentation Imaging Systems (BioRad). The band intensities were quantified using software ImageJ (NIH, USA) and relative protein levels were normalized by β-actin (Cell Signaling). To perform the western blot of animal tissue samples, the gingival tissues were collected from both BABLB/c and C57BL/6 mice studies. The soft tissues were separated from the mandibular bone and then crunched. The Bradford assay was performed to measure the protein concentration of each sample. After normalization, 20 μg of whole tissue protein lysate were proceeded for western blot analysis.

[1] = system: Collagen type I alpha 1 (Col1a1); experiment: Collagen (Col1a1) expression in Human Oral Fibroblasts, QPCR; type: cell-based; conditions: HOF treated with conditioned media from Oral Keratinocytes containing LPS, CSA, Phenytoin or Folic acid (10 μg/ml), 24 hours; p<0.05
Procedure: as §1
Human Oral Fibroblasts (HOF) cells were seeded in 60 mm plates with a density of 2.5×10^4/cm^2 and treated with condition (CM) media collected from Oral Keratinocytes containing LPS (10 μg/ml), CSA (10 μg/ml), Phenytoin (10 μg/ml), or Folic acid (10 μg/ml) and incubated for 24 hours. The Collagen type I alpha 1 (Col1a1) gene expression was determined by QPCR. HOF cells were treated with rTGF-β, SB-431542 (SB), rTNF-α, or TNF-α inhibitor (TNF-α inh). Quantitative real-time PCR results showing the expression of Col1a1 in HOF cells after the treatment. (p<0.05).

LITAF = experiment: Mice study #2: LITAF immunostaining of gingival tissue; type: in vivo, C57BL/6 mice
Procedure: (§2) Mice study #2: Validation study for preventive and active treatment for DIGO. […] One set of these mice were used as a control disease group (FIG. 23A) while the other group was treated with folic acid (gel and in drinking water) (FIG. 23B). In the prevention and treatment group, folic acid (10 μg/ml) (Sigma-Aldrich, St. Louis MO) was included in the drinking water from the time of suture placement until end of the study (14 days). Additionally, gel applications were repeated daily until the end of the study (14 days). The four groups in this study were: • 1. Control group (n=2): no interventions were performed • 2.
(§3) Histopathology and Immunohistochemistry. Mice mandibles were fixed in 10% formaldehyde for overnight at 4° C. on the shaker with 45 rpm and then the solutions were replaced with 70% ethanol. The tissues were decalcified with 10% ethylenediaminetetraacetic acid (EDTA) for 1 week and were dehydrated through graded ethanol, cleared with xylene, and embedded in paraffin. 4 μm serial sections were cut in a buccal-lingual direction and stained with Hematoxylin and Eosin (HE) and observed under light microscopy for histomorphological evaluations.
(§4) For immunohistochemistry, unstained sections were deparaffinized in xylene for 10 minutes and then transferred to ethanol for 20 minutes. […]

NFκB = experiment: Mice study #2: NFκB immunostaining of gingival tissue; type: in vivo, C57BL/6 mice
Procedure: as §2, §3, §4

SMILES: Nc1nc2ncc(CNc3ccc(C(=O)N[C@@H](CCC(=O)O)C(=O)O)cc3)nc2c(=O)[nH]1 [folic acid]
- MyD88 protein level (MyD88; LPS, CSA, FA each 10 μg/ml, 24 hours): inhibits CSA-induced expression
- amount of MYD88 protein (MyD88; LPS, Phe, FA each 10 μg/ml, 24 hours): MyD88 expression is reduced
- MyD88 by western blot, dose-dependent effects of FA (MyD88; different concentration of folic acid, 24 hrs): inhibition of MyD88
- MyD88 by western blot, kinetics of downregulation (MyD88; different time points, FA 10 μg/ml): inhibition of MyD88
- MyD88 by western blot (MyD88; normal oral keratinocyte cells, FIG. 35): downregulation
- Collagen type I alpha 1 (Col1a1) gene expression [1]: reduces the collagen expression
- epithelial LITAF expression, disease group relative to folic acid-treated group (LITAF): higher in the disease group and uniformly distributed compared to the control and treated groups
- NFκB epithelial expression, control, disease and folic acid-treated groups (NFκB): higher in the control group followed by the disease group
